Measurements reported in patent publication US12376538B2, “Rice cultivar designated ‘CLL17’” (Board of Supervisors of Louisiana State University and …, priority 2020, dated 2025).

Tested on: ‘CLL17’ rice plant
Experiment: Herbicide tolerance and susceptibility of 'CLL17' rice plants
Assay type: in vivo
Settings: at levels of the herbicide that would normally inhibit the growth of a rice plant
Excerpt: The variety is resistant to imidazolinone herbicides. The herbicide resistance (or herbicide tolerance) profile is essentially the same as that of ‘CL161’ through common ancestry. The herbicide tolerance allows ‘CLL17,’ its hybrids, and derived varieties to be used with certain imidazolinone or sulfonylurea herbicides, including among others the imidazolinone herbicides imazethapyr and imazamox, for the selective control of weeds including red rice. See generally U.S. Pat. No. 6,943,280.
Among others, the herbicide tolerance and susceptibility characteristics of ‘CLL17’ include or are expected to include the following.

| SMILES | herbicide tolerance / susceptibility of ‘CLL17’ (resistant or sensitive) |
| --- | --- |
| CCOC(=O)c1ccccc1S(=O)(=O)NC(=O)Nc1nc(Cl)cc(OC)n1 [chlorimuron ethyl] | sensitive |
| COCc1cnc(C2=NC(C)(C(C)C)C(=O)N2)c(C(=O)O)c1 (stereo not drawn) [imazamox] | resistant |
| Cc1cnc(C2=NC(=O)C(C)(C(C)C)N2)c(C(=O)O)c1 (stereo not drawn) [imazapic] | resistant |
| CC(C)C1(C)N=C(c2ncccc2C(=O)O)NC1=O (stereo not drawn) [imazapyr] | resistant |
| CC(C)C1(C)N=C(c2nc3ccccc3cc2C(=O)O)NC1=O (stereo not drawn) [imazaquin] | resistant |
| CCc1cnc(C2=NC(C)(C(C)C)C(=O)N2)c(C(=O)O)c1 (stereo not drawn) [imazethapyr] | resistant |
| COC(=O)c1ccccc1S(=O)(=O)NC(=O)Nc1nc(C)nc(OC)n1 [metsulfuron methyl] | resistant |
| COc1cc(OC)nc(NC(=O)NS(=O)(=O)c2ncccc2C(=O)N(C)C)n1 [nicosulfuron] | resistant |
| CCS(=O)(=O)c1cccnc1S(=O)(=O)NC(=O)Nc1nc(OC)cc(OC)n1 [rimsulfuron] | sensitive |
| COC(=O)c1ccccc1S(=O)(=O)NC(=O)Nc1nc(C)cc(C)n1 [sulfometuron methyl] | sensitive |
| COC(=O)c1sccc1S(=O)(=O)NC(=O)Nc1nc(C)nc(OC)n1 [thifensulfuron methyl] | resistant |
| COC(=O)c1ccccc1S(=O)(=O)NC(=O)N(C)c1nc(C)nc(OC)n1 [tribenuron methyl] | resistant |
